Structures are written as SMILES.

T1 sequence (Q2M2I8 whole entry): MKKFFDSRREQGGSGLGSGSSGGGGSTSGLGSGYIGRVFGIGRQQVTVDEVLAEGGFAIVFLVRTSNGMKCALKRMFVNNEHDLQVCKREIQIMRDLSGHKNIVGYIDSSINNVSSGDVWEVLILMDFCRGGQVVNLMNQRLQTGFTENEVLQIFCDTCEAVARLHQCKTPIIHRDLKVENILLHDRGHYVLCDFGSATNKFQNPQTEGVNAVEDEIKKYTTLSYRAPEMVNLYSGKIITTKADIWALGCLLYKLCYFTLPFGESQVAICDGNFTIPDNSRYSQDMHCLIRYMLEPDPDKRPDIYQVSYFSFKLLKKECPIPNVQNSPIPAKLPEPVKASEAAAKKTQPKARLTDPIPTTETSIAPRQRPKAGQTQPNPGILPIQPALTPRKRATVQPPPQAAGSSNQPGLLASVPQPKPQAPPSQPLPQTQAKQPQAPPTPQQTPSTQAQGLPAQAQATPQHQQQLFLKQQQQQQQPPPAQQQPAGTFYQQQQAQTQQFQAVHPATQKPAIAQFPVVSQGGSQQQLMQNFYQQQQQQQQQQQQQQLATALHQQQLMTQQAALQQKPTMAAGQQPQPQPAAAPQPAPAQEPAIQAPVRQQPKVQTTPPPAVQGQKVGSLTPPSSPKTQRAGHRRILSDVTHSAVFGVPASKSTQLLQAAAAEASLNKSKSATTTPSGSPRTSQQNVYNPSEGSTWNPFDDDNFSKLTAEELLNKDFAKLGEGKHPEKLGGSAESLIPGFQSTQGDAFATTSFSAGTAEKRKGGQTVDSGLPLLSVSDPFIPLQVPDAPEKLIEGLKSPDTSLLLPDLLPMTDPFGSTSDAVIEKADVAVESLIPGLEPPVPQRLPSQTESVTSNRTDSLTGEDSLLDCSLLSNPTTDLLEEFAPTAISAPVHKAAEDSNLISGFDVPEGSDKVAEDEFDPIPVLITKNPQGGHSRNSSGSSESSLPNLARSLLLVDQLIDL

This assay addresses T1, GST-Xa-hAAK1 (Homo sapiens, UniProt Q2M2I8).
T1 construct: made in house
The assay is described as follows: AAK1 Kinase Assay. The format is biochemical. Particulars: IC50 (nM), ATP 22 μM; 3 hours at room temperature; Caliper LabChip 3000. As for the experimental part:
The assays were performed in U-bottom 384-well plates. […] The reactions were initiated by the combination of bacterially expressed, GST-Xa-hAAK1 with substrates and test compounds. The reactions were incubated at room temperature for 3 hours and terminated by adding 60 μl of 35 mM EDTA buffer to each sample. The reactions were analyzed on the Caliper LabChip 3000 (Caliper, Hopkinton, Mass.) by electrophoretic separation of the fluorescent substrate and phosphorylated product. […] Compounds were dissolved at 10 mM in dimethylsulfoxide (DMSO) and evaluated at eleven concentrations. IC50 values were derived by non-linear regression analysis.
What is called IC50 is the concentration at which inhibition is half-maximal. For `COc1cc(NC(=O)[C@H](N)CO)ccc1-c1cnco1` [Example 75, (R)-2-Amino-3-hydroxy-N-(3-methoxy-4-(oxazol-5-yl)phenyl)propanamide], the IC50 was 5100 nM.

For `COc1cc(NC(=O)C2NCCCC2C(F)(F)F)ccc1-c1cnco1` (single isomer, unassigned) [Example 91, N-(3-Methoxy-4-(oxazol-5-yl)phenyl)-3-(trifluoromethyl)piperidine-2-carboxamide], the IC50 stood at 417 nM. As to `CC[C@@H](C)[C@@H](N)C(=O)Nc1ccc(-c2cnco2)c(OC)c1` [Example 55, (2R,3R)-2-Amino-N-(3-methoxy-4-(oxazol-5-yl)phenyl)-3-methylpentanamide], the IC50 was found to be 130 nM. Next, `NC(C(=O)Nc1ccc(-c2ccncc2)cc1)C1CCCCC1C(F)(F)F` (mixture of isomers) [Example 122, 2-Amino-N-(4-(pyridin-4-yl)phenyl)-2-(2-(trifluoromethyl)cyclohexyl)acetamide]: 64 nM.

For `COc1cc(NC(=O)[C@H](N)CCSC)ccc1-c1cnco1` [Example 54, (R)-2-Amino-N-(3-methoxy-4-(oxazol-5-yl)phenyl)-4-(methylthio)butanamide], the IC50 came out at 720 nM. As to `CC(C)C[C@@H](N)C(=O)Nc1ccc(-c2ccncc2)cc1` [Example 116, (R)-2-Amino-4-methyl-N-(4-(pyridin-4-yl)phenyl)pentanamide], the IC50 amounted to 25 nM. In the case of `COc1cc(NC(=O)[C@H](N)CC(C)C)ccc1-c1cnc[nH]1` [Example 109, (R)—N-(4-(1H-Imidazol-5-yl)-3-methoxyphenyl)-2-amino-4-methylpentanamide], the IC50 stood at 790 nM. Next, `COc1c(-c2cnco2)cc(Cl)c(NC(=O)[C@H](N)CC(C)C)c1Cl` [Example 29, (R)-2-Amino-N-(2,6-dichloro-3-methoxy-4-(oxazol-5-yl)phenyl)-4-methylpentanamide]: 344 nM. In the case of `CC(C)C[C@@H](N)C(=O)Nc1ccc(-c2cnco2)c(OC(F)(F)F)c1` [Example 106, (R)-2-Amino-4-methyl-N-(4-(oxazol-5-yl)-3-(trifluoromethoxy)phenyl)pentanamide] it was 160 nM; in that of `COc1cc(NC(=O)C2CCCCN2C(C)C)ccc1-c1cnco1` (stereo not shown) [Example 83, 1-Isopropyl-N-(3-methoxy-4-(oxazol-5-yl)phenyl)piperidine-2-carboxamide], 360 nM. As for `CCCC[C@H](N)C(=O)Nc1ccc(-c2cnco2)c(OC)c1` [Example 53, (S)-2-Amino-N-(3-methoxy-4-(oxazol-5-yl)phenyl)hexanamide], the IC50 came to 270 nM. Turning to `CCCC[C@@H](N)C(=O)Nc1ccc(-c2cnco2)c(OC)c1` [Example 52, (R)-2-Amino-N-(3-methoxy-4-(oxazol-5-yl)phenyl)hexanamide], the concentration for half-maximal inhibition (IC50) was determined as 530 nM. In the case of `CC(C)C[C@@H](N)C(=O)Nc1ccc(-c2ccncc2)cc1-c1nn[nH]n1` [Example 115, (R)-2-Amino-4-methyl-N-(4-(pyridin-4-yl)-2-(2H-tetrazol-5-yl)phenyl)pentanamide] it was 28 nM; in that of `CCC[C@H](N)C(=O)Nc1ccc(-c2cnco2)c(OC)c1` [Example 51, (S)-2-Amino-N-(3-methoxy-4-(oxazol-5-yl)phenyl)pentanamide], 590 nM; in that of `COc1cc(NC(=O)C2CNCCN2C(C)C)ccc1-c1cnco1` (stereo not shown) [Example 86, 1-Isopropyl-N-(3-methoxy-4-(oxazol-5-yl)phenyl)piperazine-2-carboxamide], 52 nM. In the case of `COc1cnccc1-c1ccc(NC(=O)[C@H](N)CC(C)C)cc1` [Example 44, (R)-2-Amino-N-(4-(3-methoxypyridin-4-yl)phenyl)-4-methylpentanamide] it was 140 nM. In the case of `COc1cc(NC(=O)C(N)CCC(F)(F)F)ccc1-c1cnco1` (stereo not shown) [Example 76, 2-Amino-5,5,5-trifluoro-N-(3-methoxy-4-(oxazol-5-yl)phenyl)pentanamide] it was 110 nM; in that of `COc1cc(NC(=O)[C@@H](CC(C)C)NCc2ccc(C)cc2)ccc1-c1cnco1` [Example 63, (R)—N-(3-Methoxy-4-(oxazol-5-yl)phenyl)-4-methyl-2-((4-methylbenzyl)amino)pentanamide], 540 nM.

On to `COc1cc(NC(=O)C2NCCC2C(C)C)ccc1-c1cnco1` (single isomer, unassigned) [Example 39, 3-Isopropyl-N-(3-methoxy-4-(oxazol-5-yl)phenyl)pyrrolidine-2-carboxamide], for which the IC50 was 29 nM. Next, `CC(C)C[C@@H](N)C(=O)Nc1ccc(-c2ccncc2)cc1-c1cn[nH]c1` [Example 112, (R)—N-(2-(1H-pyrazol-4-yl)-4-(pyridin-4-yl)phenyl)-2-amino-4-methylpentanamide]: 1340 nM; `CC(C)C[C@@H](N)C(=O)Nc1ccc(-c2cn[nH]c2)c(OC(F)F)c1` [Example 41, 2-Amino-N-(3-(difluoromethoxy)-4-(1H-pyrazol-4-yl)phenyl)-4-methylpentanamide]: 45 nM.

With `CC(C)C[C@@H](N)C(=O)Nc1ccc(-c2cnco2)c(C#N)c1` [Example 108, (R)-2-Amino-N-(3-cyano-4-(oxazol-5-yl)phenyl)-4-methylpentanamide], the IC50 worked out at 47 nM. Next, `CC(C)C[C@@H](N)C(=O)Nc1ccc(-c2ccncc2)cc1C(F)(F)F` [Example 111, (R)-2-Amino-4-methyl-N-(4-(pyridin-4-yl)-2-(trifluoromethyl)phenyl)pentanamide]: 300 nM. On to `COc1cc(NC(=O)[C@H](N)CC(C)C)ccc1-c1cnc2ccc(Cl)nn12` [Example 47, (R)-2-Amino-N-(4-(6-chloroimidazo[1,2-b]pyridazin-3-yl)-3-methoxyphenyl)-4-methylpentanamide], for which the IC50 is 440 nM. As to `CC1CCCCC1C(N)C(=O)Nc1ccc(-c2ccncc2)cc1` (mixture of isomers) [Example 121, 2-Amino-2-(2-methylcyclohexyl)-N-(4-(pyridin-4-yl)phenyl)acetamide], the IC50 came to 140 nM. In the case of `COc1cc(NC(=O)[C@@H](CC(C)C)NCc2cnn(C)c2)ccc1-c1cnco1` [Example 64, (R)—N-(3-Methoxy-4-(oxazol-5-yl)phenyl)-4-methyl-2-(((1-methyl-1H-pyrazol-4-yl)methyl)amino)pentanamide] it was 150 nM; in that of `COc1cc(NC(=O)C2NCCCC2C(F)(F)F)ccc1-c1cnco1` (single isomer, unassigned) [Example 92, N-(3-Methoxy-4-(oxazol-5-yl)phenyl)-3-(trifluoromethyl)piperidine-2-carboxamide], 74 nM; in that of `COc1cc(NC(=O)[C@H](N)CC(C)C)ccc1-c1ccnnc1` [Example 22, (R)-2-Amino-N-(3-methoxy-4-(pyridazin-4-yl)phenyl)-4-methylpentanamide], 140 nM. In the case of `CCS(=O)(=O)N[C@H](CC(C)C)C(=O)Nc1ccc(-c2cnco2)c(OC)c1` [Example 69, (R)-2-(Ethylsulfonamido)-N-(3-methoxy-4-(oxazol-5-yl)phenyl)-4-methylpentanamide] it was 280 nM. For the molecule `CNc1cc(-c2ccc(NC(=O)C(N)CC(C)C)cc2OC)ccn1` (stereo not shown) [Example 48, 2-Amino-N-(3-methoxy-4-(2-(methylamino)pyridin-4-yl)phenyl)-4-methylpentanamide], the IC50 was 450 nM.

For `CC(C)C[C@@H](N)C(=O)Nc1ccc(-c2ccncc2)cc1C#N` [Example 114, (R)-2-Amino-N-(2-cyano-4-(pyridin-4-yl)phenyl)-4-methylpentanamide], the IC50 worked out at 75 nM. In the case of `COc1cc(NC(=O)[C@@H](CC(C)C)NCc2ccc(Cl)cc2)ccc1-c1cnco1` [Example 60, (R)-2-((4-Chlorobenzyl)amino)-N-(3-methoxy-4-(oxazol-5-yl)phenyl)-4-methylpentanamide] it was 210 nM; in that of `COc1cc(NC(=O)[C@H](N)CC(C)C)c(-c2nn[nH]n2)cc1-c1cnco1` [Example 102, (R)-2-Amino-N-(5-methoxy-4-(oxazol-5-yl)-2-(2H-tetrazol-5-yl)phenyl)-4-methylpentanamide], 6 nM; in that of `COc1cc(NC(=O)[C@@H](CC(C)C)NCc2ccsc2)ccc1-c1cnco1` [Example 65, (R)—N-(3-Methoxy-4-(oxazol-5-yl)phenyl)-4-methyl-2-((thiophen-3-ylmethyl)amino)pentanamide], 370 nM.

For the molecule `COc1cc(NC(=O)[C@H](N)CC(C)C)c(-c2cnco2)cc1-c1cnco1` [Example 104, (R)-2-Amino-N-(5-methoxy-2,4-bis(oxazol-5-yl)phenyl)-4-methylpentanamide], the concentration for half-maximal inhibition (IC50) came to 760 nM. Next, `COc1cc(NC(=O)[C@@H](N)CC(C)C)c(F)cc1-c1cnco1` [Example 99, (S)-2-Amino-N-(2-fluoro-5-methoxy-4-(oxazol-5-yl)phenyl)-4-methylpentanamide]: 780 nM. Consider `COc1cc(NC(=O)[C@H](N)CC(C)C)ccc1-n1ccnc1` [Example 25, (R)—N-(4-(1H-Imidazol-1-yl)-3-methoxyphenyl)-2-amino-4-methylpentanamide], for which the IC50 worked out at 3250 nM. For the molecule `COc1cc(NC(=O)[C@H](N)[C@H](C)O)ccc1-c1cnco1` [Example 77, (2R,3S)-2-Amino-3-hydroxy-N-(3-methoxy-4-(oxazol-5-yl)phenyl)butanamide], the IC50 was 810 nM.

Turning to `COc1cc(NC(=O)C[C@@H](N)C(C)C)ccc1-c1cnco1` [Example 79, (R)-3-Amino-N-(3-methoxy-4-(oxazol-5-yl)phenyl)-4-methylpentanamide], the IC50 was 130 nM. In the case of `CCOc1cc(NC(=O)[C@H](N)CC(C)C)ccc1-c1cnco1` [Example 17, (R)-2-Amino-N-(3-ethoxy-4-(oxazol-5-yl)phenyl)-4-methylpentanamide] it was 66 nM.

The values are drawn from patent US10253027B2, “Aryl lactam kinase inhibitors” (Bristol-Myers Squibb Company, priority 2013, dated 2019).
